Patent publication US8962660B2 (Bristol-Myers Squibb Company, priority 2013, dated 2015)

target: T1, human GPR120 (Homo sapiens, UniProt Q5NUL3); assay: GPR120 pERK AlphaScreen SureFire assay (human); format: cell-based; details: CHO cells stably transfected with short form of human GPR120
T1 construct: expressed in transfected cells; host or cells: CHOA12 cells
T1 sequence (Q5NUL3 1-361): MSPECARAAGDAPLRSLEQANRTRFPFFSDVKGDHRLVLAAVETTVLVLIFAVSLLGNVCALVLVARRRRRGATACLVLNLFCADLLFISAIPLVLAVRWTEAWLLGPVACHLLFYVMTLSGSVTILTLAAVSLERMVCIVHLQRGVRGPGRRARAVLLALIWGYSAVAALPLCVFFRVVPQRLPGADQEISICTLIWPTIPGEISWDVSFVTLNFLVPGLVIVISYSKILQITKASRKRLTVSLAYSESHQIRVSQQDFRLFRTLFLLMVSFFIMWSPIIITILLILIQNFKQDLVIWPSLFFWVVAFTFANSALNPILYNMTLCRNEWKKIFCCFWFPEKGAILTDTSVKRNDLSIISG
Excerpt: GPR120 activity was monitored by measuring phosphorylation of ERK (pERK), since G protein receptors are known to activate the ERK signaling cascade either directly and/or through recruitment of arrestin that serves as a scaffold for downstream signaling events.
GPR120 pERK AlphaScreen SureFire Assay
The human and mouse GPR120-mediated intracellular phosphorylated ERK assays were established using CHOA12 cells stably transfected with the short form of human or mouse GPR120 receptor. Cells were cultured in growth medium consisting of F-12 media (Invitrogen Cat. #11765) with 5% Charcoal/Dextran FBS (Invitrogen Cat. #12676-029), 500 μg/mL GENETICIN® (Life Technologies Cat. #10131-027) and 250 μg/mL Zeocin (Invitrogen Cat. #R250-01). Cells were cryo preserved at a concentration of 2×10^7 cells/mL, in 90% Charcoal/Dextran FBS and 10% DMSO, and frozen in liquid nitrogen at a low passage number.
For the pERK assay, 2×10^7 cells/mL cryopreserved human and mouse cells were thawed rapidly in a 37° C. water bath and added to a T-225 flask containing 50 mL growth medium. The flasks were placed in a tissue culture incubator overnight (37° C., 5% CO2). The next day, cells were harvested with trypsin (Gibco Cat. #25300-054), resuspended in serum-containing growth medium and counted using a Cellometer and volume adjusted to a concentration of 0.6×10^6cells/mL. Cells were plated into 384-well clear bottom tissue culture plates (BD Cat. #353962) at 50 μL/well, for a density of 30,000 cells/well using a MULTIDROP® and incubated for 16-18 hours (overnight) at 37° C. with 5% CO2. The next day, cells were serum starved in 30 μL of F-12 media without any serum or antibiotics for 2 hours at 37° C.
Test compounds were 3-fold, 11-point serially diluted in DMSO in a REMP assay plate (Matrix Cat. #4307) by Tecan and 5 μL was transferred into an ECHO source plate (LABCYTE® Cat. #LC-0200). Cells were then stimulated with 50 nL of compound dilutions using ECHO liquid handler for 7 minutes at 37° C. Compounds ranged from final assay concentrations of 33.33 μM to 0.56 nM.
The media was then dumped and cells lysed with 20 μL of 1× Lysis buffer from the AlphaScreen SureFire Phospho-ERK 1/2 Kit (Perkin Elmer Cat. #6760617M). The lysis buffer was diluted 5-fold with water before use. The plate was agitated on a shaker for 10 minutes after which 2 μL was transferred into a 384-well white proxiplate (Perkin Elmer Cat. #6008289). The SureFire assay reagent mix was prepared by mixing 60 parts Reaction Buffer, 10 parts Activation Buffer, 1 part Donor Beads, 1 part Acceptor Beads (Perkin Elmer Cat. #TGRES10K). 3.5 μL/well of this reagent mix was manually added to the proxiplate with a multichannel pipettor. Plates were spun down at 1000 rpm for 2 minutes, followed by light-protected incubation at room temperature for 2 hours. The plates were read on the Alpha-technology compatible Envision multilabel plate reader using AlphaScreen protocol according to manufacturer's specifications. The agonist effect of compounds was expressed as 100×(average sample−average blank)/(average total−average blank) where sample is the luminescence activity in the presence of test compound, blank is equal to the luminescence activity in the presence of DMSO control and the total is signal induced by 50 μM linolenic acid as reference compound. Activation data for the test compound over a range of concentrations was plotted as percentage activation of the test compound (100%=maximum response). After correcting for background, EC50 values were determined The EC50 is defined as the concentration of test compound which produces 50% of the maximal response and was quantified using the 4 parameter logistic equation to fit the data.
The human and mouse GPR120-mediated intracellular phosphorylated ERK assays were also established using CHO-K1 cells stably transfected with the short form of human or mouse GPR120 receptor. […]

SMILES	EC50 [µM]
COC(CCC12CCC(c3cccc(Oc4ccccc4)c3)(CC1)OC2)CC(=O)O (stereo not drawn) [Example 33, 3-Methoxy-5-(1-(3-phenoxyphenyl)-2-oxabicyclo[2.2.2]octan-4-yl)pentanoic acid]	1.9
O=C(O)CCC12CCC(c3cccc(Oc4ccccc4)c3)(CC1)OC2 [Example 1, 3-(1-(3-Phenoxyphenyl)-2-oxabicyclo[2.2.2]octan-4-yl)propanoic acid]	2.31
O=C(O)C1CC1COC12CCC(c3cccc(Oc4ccccc4)c3)(CC1)OC2 (stereo not drawn) [Example 96, 2-(((1-(3-Phenoxyphenyl)-2-oxabicyclo[2.2.2]octan-4-yl)oxy)methyl) cyclopropanecarboxylic acid]	1.68
COc1ccc(Oc2cccc(C34CCC(CC[C@@H]5C[C@H]5C(=O)O)(CC3)CO4)c2)cc1 [Example 71, (1R,2R)-2-(2-(1-(3-(4-methoxy-phenoxy)phenyl)-2-oxabicyclo[2.2.2]octan-4-yl)ethyl)cyclo-propane carboxylic acid]	1.17
O=C(O)COCCC12CCC(c3cccc(C(F)(F)F)c3)(CC1)OC2 [Example 49, 2-(2-(1-(3-(Trifluoromethyl)phenyl)-2-oxabicyclo[2.2.2]octan-4-yl)ethoxy)acetic acid]	3.31
Cc1nc(-c2cccc(C34CCC(CCOCC(=O)O)(CC3)CO4)c2)no1 [Example 48, 2-(2-(1-(3-(5-Methyl-1,2,4-oxadiazol-3-yl)phenyl)-2-oxabicyclo[2.2.2]octan-4-yl)ethoxy)acetic acid]	6.76
O=C(O)COCCC12CCC(c3cccc(Oc4ccc(F)c(F)c4)n3)(CC1)OC2 [Example 116, 2-(2-(1-(6-(3,4-Difluorophenoxy)pyridin-2-yl)-2-oxabicyclo[2.2.2]octan-4-yl)ethoxy) acetic acid]	1.15
O=C(O)COCCC12CCC(c3cccc(OS(=O)(=O)C(F)(F)F)c3)(CC1)OC2 [Example 47, 2-(2-(1-(3-(Trifluoromethylsulfonyloxy)phenyl)-2-oxabicyclo[2.2.2]octan-4-yl)ethoxy)acetic acid]	1.03
CCCC(C)Oc1cccc(C23CCC(CCOCC(=O)O)(CC2)CO3)c1 (racemic) [Example 53, 2-(2-(1-(3-(Pentan-2-yloxy)phenyl)-2-oxabicyclo[2.2.2]octan-4-yl)ethoxy)acetic acid]	1.03
O=C(O)[C@@H]1C[C@H]1CCC12CCC(c3cccc(Oc4cccc(O)c4)c3)(CC1)OC2 (single isomer, unassigned) [Example 70, 2-(2-(1-(3-(3-Hydroxyphenoxy)phenyl)-2-oxabicyclo[2.2.2]octan-4-yl)ethyl) cyclopropanecarboxylic acid]	0.97
O=C(O)COCCC12CCC(c3cccc(Oc4cccc(O)c4)c3)(CC1)OC2 [Example 117, 2-(2-(1-(3-(3-Hydroxyphenoxy)phenyl)-2-oxabicyclo[2.2.2]octan-4-yl)ethoxy)acetic acid]	5.21
O=C(O)COCCC12CCC(c3cccc(OCC4CCC4)c3)(CC1)OC2 [Example 51, 2-(2-(1-(3-(Cyclobutylmethoxy)phenyl)-2-oxabicyclo[2.2.2]octan-4-yl)ethoxy)acetic acid]	1.09
Cc1nc(-c2ccccc2)c(C23CCC(CCCCC(=O)O)(CC2)CO3)s1 [Example 4, 5-(1-(2-Methyl-4-phenylthiazol-5-yl)-2-oxabicyclo[2.2.2]octan-4-yl)pentanoic acid]	1.6

Stronger by EC50, values ahead:

EC50 [µM]	SMILES
0.75	COc1cccc(Oc2cccc(C34CCC(CC[C@@H]5C[C@H]5C(=O)O)(CC3)CO4)c2)c1 (single isomer, unassigned) [Example 67, 2-(2-(1-(3-(3-Methoxyphenoxy)phenyl)-2-oxabicyclo[2.2.2]octan-4-yl)ethyl)cyclopropanecarboxylic acid]
0.72	O=C(NCc1ncn[nH]1)[C@H]1C[C@@H]1CCC12CCC(c3cccc(Oc4ccccc4)c3)(CC1)OC2 (single isomer, unassigned) [Example 68, N-((1H-1,2,4-Triazol-5-yl)methyl)-2-(2-(1-(3-phenoxyphenyl)-2-oxabicyclo[2.2.2]octan-4-yl)ethyl)cyclopropanecarboxamide]
0.64	O=C(O)COCCC12CCC(c3cccc(OC4CCCCC4)c3)(CC1)CO2 [Example 111, 2-(2-(4-(3-(Cyclohexyloxy)phenyl)-2-oxabicyclo[2.2.2]octan-1-yl)ethoxy) acetic acid]
0.61	OCC(O)CCC12CCC(c3cccc(Oc4ccccc4)c3)(CC1)OC2 (stereo not drawn) [Example 56, 4-(1-(3-Phenoxyphenyl)-2-oxabicyclo[2.2.2]octan-4-yl)butane-1,2-diol]
0.59	O=C(CCCCC12CCC(c3cccc(Oc4ccccc4)c3)(CC1)OC2)NS(=O)(=O)c1ccccc1 [Example 25, 5-(1-(3-Phenoxyphenyl)-2-oxabicyclo[2.2.2]octan-4-yl)-N-(phenylsulfonyl)pentanamide]
0.58	Cc1ccc(Oc2cccc(C34CCC(CCOCC(=O)O)(CC3)OC4)c2)cc1 [Example 106]
0.47	COc1cc(F)cc(Oc2cc(F)cc(C34CCC(CCOCC(=O)O)(CC3)CO4)c2)c1 [Example 84, 2-(2-(1-(3-fluoro-5-(3-fluoro-5-methoxyphenoxy)phenyl)-2-oxabicyclo [2.2.2]octan-4-yl)ethoxy) acetic acid]
0.4	O=C(O)COCCC12CCC(c3cccc(Oc4ccc(F)c(F)c4)c3)(CC1)OC2 [Example 75, 2-(2-(1-(3-(3,4-difluoro-phenoxy)phenyl)-2-oxabicyclo[2.2.2]octan-4-yl)ethoxy)acetic acid]
0.39	O=C(O)C1CC1COCC12CCC(c3cccc(Oc4ccccc4)c3)(CC1)OC2 (stereo not drawn) [Example 97, Trans-2-(((1-(3-phenoxyphenyl)-2-oxabicyclo[2.2.2]octan-4-yl)methoxy)methyl) cyclopropane carboxylic acid]
0.36	OCC(O)CCCC12CCC(c3cccc(Oc4ccccc4)c3)(CC1)OC2 (single isomer, unassigned) [Example 59, S-5-(1-(3-Phenoxyphenyl)-2-oxabicyclo[2.2.2]octan-4-yl)pentane-1,2-diol]
0.34	O=C(O)COCCC12CCC(c3ccc(F)c(Oc4ccc(F)cc4)c3)(CC1)OC2 [Example 88, 2-(2-(1-(4-fluoro-3-(4-fluorophenoxy)phenyl)-2-oxabicyclo[2.2.2]octan-4-yl)ethoxy)acetic acid]
0.29	OCC(O)CCCC12CCC(c3cccc(Oc4ccccc4)c3)(CC1)OC2 (racemic) [Example 58, 5-(1-(3-Phenoxyphenyl)-2-oxabicyclo[2.2.2]octan-4-yl)pentane-1,2-diol]
0.27	Cc1ccc(Oc2cc(C34CCC(CCOCC(=O)O)(CC3)OC4)ccc2F)cc1F [Example 112]
0.26	O=C(O)[C@@H]1C[C@H]1CCC12CCC(c3cc(F)cc(Oc4cccc(F)c4)c3)(CC1)OC2 (single isomer, unassigned) [Example 64, 2-(2-(1-(3-Fluoro-5-(3-fluorophenoxy)phenyl)-2-oxabicyclo[2.2.2]octan-4-yl)ethyl) cyclopropanecarboxylic acid]
